For assay [1], the system named is MTX-sensitive HT-1080 tumor xenograft. Nature of the assay: Tumor response (in vivo surviving fraction) with leucovorin rescue, HT-1080 xenograft. Set-up: species or system athymic nude mice. As to the method:
At 6 hours post 3′-fluoromethotrexate administration mice received i.p. hydration of 1.0 cc normal saline and at 24 hours received leucovorin (Bedford Laboratories, Bedford, Ohio) rescue therapy (36). This protocol allows the mice to survive what would otherwise be a fatal dosage of 3′-fluoromethotrexate and is analogous to that used in high-dose MTX therapy in humans. Tumor growth was monitored post-therapy.
The 3 perpendicular axes of the tumor were measured with a micrometer and the tumor volume modeled as a spheroid, i.e., v=π/6a·b·c, where a, b, c are the dimensions of the tumor axes in cm.
The parameter DT0 is the mean doubling time of the untreated, control group for each xenograft tumor model and TGD is the tumor growth delay for the treated tumor (the difference in tumor doubling time between the treated tumor and DT0).
Analysis of the tumor growth post-therapy allows for a comparison of the efficacy of MTX and 3′-fluoromethotrexate in terms of SF, the fraction of cells in the pretreatment tumor surviving therapy (Eqn. 3).

Assay [2] concerns human sarcoma cell line HT-1080. Nature of the assay: In vitro cytotoxicity against HT-1080, XTT/PMS cell viability assay.

The values that follow come from patent US20040259878A1, “Fluoromethotrexates and uses therefor” (priority 2003, published 2004).

As a reminder, the IC50 is the concentration that inhibits the measured activity by half.

Several values for one entry are separate records, joined by “and”; a condition that tells them apart may be missing. Equal entries are not always repeated. Where two headings read alike, the source gives them in different places.

As to `CN(Cc1cnc2nc(N)nc(N)c2n1)c1ccc(C(=O)N[C@@H](CCC(=O)O)C(=O)O)cc1` [MTX, methotrexate], the “SF, in vivo surviving fraction” value in assay [1] (200 mg/kg, HT-1080 model) was determined as 0.64±0.08; in assay [1] (400 mg/kg i.v. bolus, HT-1080 model), 0.56±0.07. The IC50 in assay [2] (Homo sapiens, HT-1080, 24 h, read-out: IC50 for 24 h drug exposure, normal medium = RPMI-1640 medium + 10% FCS, 24 h exposure) is 445 ± 148 nM; in assay [2] (Homo sapiens, HT-1080, 24 h, read-out: IC50 for 24 h drug exposure, treated medium = thymidine-free RPMI-1640 + 10% FCS, 24 h exposure), 69 ± 19 nM.
With “N-(2-Fluoro-4-amino-4-deoxy-N-methyl-pteroyl)-L-glutamic acid [FMTX]”, in assay [1] (mouse, in vivo), the “SF, in vivo surviving fraction” value was 0.29±0.06 and 0.42±0.04. The IC50 in assay [2] (read-out: IC50 for 24 h drug exposure, normal medium = RPMI-1640 medium + 10% FCS, 24 h exposure) amounted to 345 ± 117 nM; in assay [2] (read-out: IC50 for 24 h drug exposure, treated medium = thymidine-free RPMI-1640 + 10% FCS, 24 h exposure), 26 ± 5 nM.
